As usually defined, the IC50 is the point on the concentration scale where inhibition reaches its midpoint.

Experimental findings from patent US11957760B2, “Folate receptor targeted nanoparticle drug conjugates and uses thereof” (priority 2020, dated 2024) are described below.

Like-named read-outs stand apart in the source and are kept apart here.

The subject of assay [1] is naïve KB cells. Briefly: IC50 assay in naïve KB cells. The format is cell-based. The conditions noted are these: Homo sapiens; naïve (regular) KB cells.
From the text: (§1) Naïve human KB cell line were purchased from ATCC and maintained in folic acid free RPMI 1640 media/10% FBS, and 1% of penicillin/streptomycin. To develop the TOP1 inhibitor resistant KB cells, the cells in flask (50-60% confluence) were repeatedly treated with increasing concentration of exatecan, topotecan, SN-38 or irinotecan for over 4 months. The starting TOP1 inhibitor treatment concentration was close to the KB cell's IC90 values. After each treatment, the cells were carefully washed with fresh RPMI 1640 media and left to proliferate for an additional 2-3 days until reaching 50-60% confluence.
(§2) Both naïve and TOP1 inhibitor resistant KB cell were cultured in folic acid-free medium (RPMI1640, ThermoFisher, GIBCO). Cells were plated in opaque 96-well plates at a density of 3×10^3 cells per well (total of 90 μL) and allowed to attach overnight. […] After exposing the TOP1 inhibitors with both types of cells for the same period of time, the cell viability was assessed using the CellTiter-Glo2.0 assay (Promega) according to manufacturer's instructions. Data for both viability and proliferation were plotted using Prism7 software (GraphPad). The resistant factor can be calculated by using the following equation:
Assay [2] relates to exatecan-resistant KB cells. Put plainly: IC50 assay in exatecan-resistant KB cells. The format is cell-based, human. The conditions noted are these: for IC50: Homo sapiens. The method, then: To develop the TOP1 inhibitor resistant KB cells, the cells in flask (50-60% confluence) were repeatedly treated with increasing concentration of exatecan, topotecan, SN-38 or irinotecan for over 4 months. The starting TOP1 inhibitor treatment concentration was close to the KB cell's IC90 values.
The following day, cells were treated with selected TOP1 inhibitors (e.g., free exatecan) or NDC at suitable concentration ranges. […] The resistant factor can be calculated by using the following equation: […]

Assay [3] relates to irinotecan-resistant KB cells. Briefly: IC50 assay in irinotecan-resistant KB cells. Format: cell-based, human.
From the text: as §1, §2

For `CC[C@@]1(O)C(=O)OCc2c1cc1n(c2=O)Cc2c-1nc1cc(F)c(C)c3c1c2[C@@H](N)CC3` [exatecan], the IC50 came out at 2 nM in assay [1]; 16.9 nM in assay [2] (KB, KB cells pretreated 7× with exatecan); 4 nM in assay [2] (KB cells pretreated 4× with exatecan, read-out: IC50). The “resistance of exatecan-resistant versus naïve KB cells” value in assay [2] was over 8 ×.

With `CCc1c2c(nc3ccc(OC(=O)N4CCC(N5CCCCC5)CC4)cc13)-c1cc3c(c(=O)n1C2)COC(=O)[C@]3(O)CC` [irinotecan], the IC50 in assay [1] was found to be 668 nM; in assay [3] (Homo sapiens, irinotecan-resistant KB cells), 3620 nM. Also, the “resistance of irinotecan-resistant versus naïve KB cells” value in assay [3] was determined as 5 ×.
